From patent publication US20170275344A1, “POLYPEPTIDES AND USES THEREOF AS A DRUG FOR TREATMENT OF AUTOIMMUNE DISORDERS” (Compugen Ltd., priority 2014, published 2017)
Entries after “also recorded” stand apart in the source; their conditions may differ.

Experiments:
male DBA-1 mice = experiment: Established collagen-induced arthritis (CIA), therapeutic regimen; type: in vivo, mouse
Procedure: Bovine type II collagen (CII) (RUNMC in house production, batch 03-04-08) at a concentration of 2 mg/ml in acetic acid 0.05M was emulsified in equal volumes of Freund's complete adjuvant (2 mg/ml of Mycobacterium tuberculosis strain H37Ra; Difco, Detroit, Mich.).
On day 0, 10-12 week old male DBA-1 mice (Janvier Elevage, France) (n=95) were immunized i.d. at the base of the tail with 100 μg of bovine CII. On day 21, mice received an intraperitoneal booster injection of 50 μg of CII dissolved in phosphate buffered saline (PBS), and the onset of arthritis occurred a few days after this booster.
Joint inflammation in each paw was scored visually, using a scale of 0-2 per paw with a maximal score of 8 per animal: 0=non inflamed, 1=mild inflammation, 1.5=marked inflammation, and 2=severe inflammation. Scoring was performed three times a week.
Treatment was started in established CIA early after onset of disease (i.e. therapeutic regimen), when the macroscopic scores per animal were between 0.25 and 1.25 (on a scale of 0-8). The i.p. injections were given three times per week for two weeks, after which the study was terminated and mice were terminally bled to collect serum. Thereafter, the knee and ankle joints were collected and stored in formalin. Histology was scored for inflammation and destruction on an arbitrary scale of 0-3, for five different parameters: • Joint inflammation • Cartilage proteoglycan (PG) depletion • Chondrocyte death • Cartilage erosion • Bone erosion
1. Negative control: PBS 2. Negative control mIgG2A (Bioxcell, BE0085): 10 mg/kg 3. C1ORF32 ECD-Fc (SEQ ID NO:42): 10 mg/kg 4. C1ORF32 ECD-Fc (SEQ ID NO:42): 5 mg/kg 5. Positive control: Enbrel (Wyeth, F01421) 5 mg/kg
Joints were fixed for at least 4 days in 4% formaldehyde, decalcified in 5% formic acid, and subsequently dehydrated and embedded in paraffin. Standard frontal sections of 7 μm were mounted on SuperFrost slides (Menzel-Glaser, Braunschweig, Germany). Haematoxylin and eosin (H&E) staining was performed to study joint inflammation. The severity of inflammation in the joints was scored on a scale of 0-3 (0=no cells, 1=mild cellularity, 2=moderate cellularity, and 3=maximal cellularity). To study proteoglycan (PG) depletion from the cartilage matrix, sections were stained with safranin O (SO) followed by counterstaining with fast green. Depletion of PG was determined using an arbitrary scale of 0-3, ranging from normal, fully stained cartilage to destained cartilage, fully depleted of PGs. Chondrocyte death was scored on a scale of 0-3 ranging from no loss of chondrocyte nuclei to complete empty cartilage surface. The degree of cartilage surface erosion was scored on a scale of 0-3, ranging from no damage to complete loss of articular cartilage. Bone destruction was graded separately on a scale of 0-3, ranging from no damage to the complete loss of bone structure. Histopathological changes in the joint were scored on three semiserial sections of the joint spaced 70 μm apart. Scoring was performed in a blindfolded manner.
Statistical analysis: Disease course data was analyzed using one-way ANOVA with repeated measures, with a Bonferroni's post-test of selected pairs to determine statistical differences between C1ORF32 ECD-Fc (SEQ ID NO:42) and Enbrel treated mice, each as compared to Control Ig (IgG2a) treated group.

psoriasis patients = conditions: cited from earlier work
[1] = tested on: healthy human skin transplanted onto beige-SCID mice; experiment: Humanized psoriasis model: healthy human skin xenotransplants on beige-SCID mice injected with psoriatic patients' PBMCs; type: in vivo, mouse
From the text: In this model, psoriasis is induced in xenotransplants of healthy human skin transplanted onto beige severe combined immunodeficiency (SCID) mice followed by intradermal (i.d.) injection of IL-2 enriched Peripheral Blood Mononuclear Cells (PBMCs) isolated from blood of psoriasis patients (Nickoloff, 1995; Wrone-Smith, 1996 Gilhar et al., 2002, 2006, 2011). The activity of these compounds was compared to that of Enbrel, a TNF inhibitor which is an approved biological drug for treatment of psoriasis. As a control for model robustness, we used dexamethasone, a steroid with suppressive effects on inflammatory cytokines and chemokines such as TNF-alpha and interferon-gamma which cause severe psoriasis. All treatments were administered intradermally, except for dexamethasone which was given topically.
Study Protocol: A) Healthy human skin pieces with a width of 0.4 mm and surface area of 1.5×1.5 cm were provided from residual skin of routine plastic surgery procedures from the Plastic Surgery Department of the Rambam Medical Center, Israel. In addition, 20 mL blood samples were taken from psoriatic patients. B) Seventy (70) beige-severe combined immunodeficient mice (SCID) (weight˜20-25 g) were included in this study. Normal healthy human donor skin was transplanted onto the beige-SCID mice as previously described (Nickoloff et al., 1995; Wrone-Smith, 1996; Gilhar et al., 2002, 2006, 2011; Kalish et al., 2009) and the mice were divided into 7 groups. C) Peripheral Blood Mononuclear Cells (PBMCs) isolated from psoriatic patients' blood were cultured in the presence of IL-2 [Prospec, 100 U/mL of RPMI 1640 media, 10% human AB serum (Sigma, St. Louis, Mo.), 1% glutamine, 1% antibiotics (media components; Biological Industries, Kibbutz Beit Haemeck, Israel)] for 14 days, as previously described (Gilhar et al, 2002). D) Four weeks following engraftment, each mouse was injected intra-dermally (i.d.) into the grafted skin lesion, with 1×10^7 activated allogeneic enriched PBMCs from psoriatic patients (FIG. 20). Cells from different psoriasis patients were equally distributed between treatment groups so that each patient is represented in each treatment group. E) On the day of PBMCs injection into the skin grafts, mice were divided randomly into treatment groups (n=9-10 mice per group) and administration of all drugs started (FIG. 20). All tested compounds including the vehicle were given intradermally (intralesional), three times a week, except for dexamethasone which was given topically for 14 consecutive days (Table 3).
F) Twenty eight days after starting the injections and treatment, skin was harvested (FIG. 20). Grafts were analyzed for the following psoriatic parameters by histology: epidermal thickening (acanthosis), suprapapillary epidermal thinning (papillomatosis), hyperkeratosis, parakeratosis, orthokeratosis, agranulosis-hypogranulosis, appearance of neutrophils in the upper spinous layer or in the corneal cell layer—Munro microabscess, regular elongation of rete ridges, angiogenesis, edema and dilated tortuous blood vessels in the dermal papilla and mononuclear cell infiltrate in the papillary dermis. Epidermal thickness was measured as detailed below, and HLA-DR, ICAM-1, Ki-67 and immune infiltrates (anti-CD3 stain) were evaluated by immunohistochemistry (IHC).
The entire skin graft was excised and placed in 10% formal saline overnight. Then, the specimens were place in 70% ethanol and were embedded according to the standard H&E protocol. Histological assessment of the skin grafts was performed by light microscopy and evaluated by two blinded observers [the second observer evaluated random slides (about 25% of all slides) to compare the data obtained by the first observer. […] Epidermal thickness was determined with an ocular micrometer at a minimum of 50 points along the epidermis selected to represent points of maximal and minimal thickness.
Representative grafts were allocated for IHC analysis. […]

[2] = 28 days after start of treatment

## Enbrel
Male DBA-1 mice; 5 mg/kg, day 14
  bone erosions (histology): significant reduction of bone erosions
  other histological parameters of inflammation and cartilage damage: only a trend for protection
Male DBA-1 mice; positive control, 5 mg/kg i.p. 3x/wk for 2 wks
  arthritis (macroscopic) scores: not as potent in reducing the arthritis scores as expected
Psoriasis patients; at week 12
  patients achieving 75% improvement in the psoriasis area-and-severity index (PASI 75): Forty nine
Psoriasis patients; clinical trials
  patients achieving PASI 90: 22%
[1]; [2]
  Healthy Skin (number of grafts): 3/9
  Psoriasiform Skin (number of affected grafts, histological evaluation): 6/9
  Total No. of Healthy Grafts (%): 33%
[1]; IHC, vs vehicle treated group
  proliferation index (% Ki-67 positive cells) in the xenografted skin: trend of decrease in proliferation index
[1]; Source of graft (Patient)
  Epidermal thickness of graft: 683 μm
[1]; Source of graft (Patient) B
  Epidermal thickness of graft: 658 μm
[1]; Source of graft (Patient) C
  Epidermal thickness of graft: 770 μm
[1]; Source of graft (Patient) D
  Epidermal thickness of graft: 679 μm
[1]; Source of graft (Patient) E
  Epidermal thickness of graft: 678 μm
[1]; Source of graft (Patient) G1
  Epidermal thickness of graft: 830 μm
[1]; Source of graft (Patient) H
  Epidermal thickness of graft: 496 μm
[1]; Source of graft (Patient) K
  Epidermal thickness of graft: 296 μm
[1]; Source of graft (Patient) P
  Epidermal thickness of graft: 492 μm
[1]; mean of 9-10 mice, PBS mean 682
  Epidermal thickness of grafts, Mean: 620 μm
[1]; one-tailed t-Test
  epidermal thickness compared with the vehicle-treated group: no substantial effect on epidermal thickness; also recorded: no significant reduction in epidermal thickness
